Where two headings read alike, the source gives them in different places.
What was measured:
Vaccinia virus = assay: microbe, parasite or virus in culture; type: cell-based; settings: read-out: EC50 (required to reduce virus-induced cytopathogenicity by 50%) Vaccinia virus
[1] = system: Vesicular stomatitis virus; assay: microbe, parasite or virus in culture; type: cell-based; settings: read-out: EC50 (required to reduce virus-induced cytopathogenicity by 50%) Vesicular stomatitis virus
[2] = system: Herpes simplex virus-1 TK^− KOS ACV^r; assay: microbe, parasite or virus in culture; type: cell-based; settings: read-out: EC50 (required to reduce virus-induced cytopathogenicity by 50%) Herpes simplex virus-1 TK^− KOS ACV^r
[3] = system: Herpes simplex virus-1 (KOS); assay: microbe, parasite or virus in culture; settings: Human alphaherpesvirus 1, HeLa, read-out: EC50 (required to reduce virus-induced cytopathogenicity by 50%) Herpes simplex virus-1 (KOS)
[4] = system: Herpes simplex virus-2 (G); assay: microbe, parasite or virus in culture; settings: Human alphaherpesvirus 2, HeLa, read-out: EC50 (required to reduce virus-induced cytopathogenicity by 50%) Herpes simplex virus-2 (G)
Hela cells = assay: minimum cytotoxic concentration in antiviral assay host cells (Table 2)
[5] = system: murine leukemia cells (L1210); assay: proliferation activity assay, L1210 cells; type: cell-based; settings: read-out: IC50 (50% inhibitory concentration) L1210
[6] = system: non-cancerous human T-lymphocyte cells (CEM); assay: proliferation activity assay, CEM cells; type: cell-based; settings: read-out: IC50 (50% inhibitory concentration) CEM
[7] = system: human cervix carcinoma cells (Hela); assay: proliferation activity assay, HeLa cells; type: cell-based; settings: read-out: IC50 (50% inhibitory concentration) HeLa
[8] = system: oesophageal cancer cell lines OE 19 and OE 33
[9] = system: Herpes simplex virus-1 (KOS); settings: read-out: EC50 (required to reduce virus-induced cytopathogenicity by 50%) Herpes simplex virus-1 (KOS); Hela cells
[10] = system: Herpes simplex virus-2 (G); settings: read-out: EC50 (required to reduce virus-induced cytopathogenicity by 50%) Herpes simplex virus-2 (G); Hela cells
[11] = system: cells lacking (TK negative) or possessing (TK positive) the phosphorylation enzyme; settings: cell death curves, FIG. 3
[12] = Vesicular stomatitis virus, HeLa
[13] = even at higher concentrations of 25 μM

Compound: Nc1nc(O)c2ncn(COC(CO)CO)c2n1 [Ganciclovir]
- EC50 (Vaccinia virus; Orthopoxvirus vaccinia, HeLa): > 100 µM
- EC50 [1, 12]: > 100 µM
- EC50 ([2]; Human alphaherpesvirus 1, HeLa): 10 µM

Compound: Nc1ccn(C[C@@H](CO)OCP(=O)(O)O)c(=O)n1 [Cidofovir]
- EC50 (Vaccinia virus; Orthopoxvirus vaccinia, HeLa): 17 µM
- EC50 [1, 12]: > 250 µM
- EC50 ([2]; Human alphaherpesvirus 1, HeLa): 0.9 µM
- EC50 [3]: 2 µM
- EC50 [4]: 2 µM
- Minimum cytotoxic concentration (required to cause a microscopically detectable alteration of normal cell morphology) (Hela cells): >250 μM

Compound: 1-[α-Methyl-(3-(hydroxy)propyl)]ferrocene [Compound 3]
- IC50 [5]: 12.3 µM
- IC50 [6]: 38.7 µM
- IC50 [7]: 45.2 µM
- inhibition of cell growth [8, 13]: ineffective at inhibiting cell growth

Compound: 1-(Thyminyl-)ethyl-ferrocene [Compound 4]
- IC50 [5]: 417 µM
- IC50 [6]: 592 µM
- IC50 [7]: 509 µM
- inhibition of cell growth [8, 13]: ineffective at inhibiting cell growth

Compound: (S,Rp)-1-[α-Methyl-(3-(hydroxy)propyl)]-2-[2-(-adenin-9-yl)ethyl]-ferrocene [Compound 2]
- inhibition of cell growth ([8]; 6.25 μM, 4-day experiment): inhibited cell growth

Compound: O=c1[nH]c(=O)n([C@H]2C[C@H](O)[C@@H](CO)O2)cc1/C=C/Br [Brivudin]
- EC50 (Vaccinia virus; Orthopoxvirus vaccinia, HeLa): 10 µM
- EC50 [1, 12]: > 250 µM
- EC50 ([2]; Human alphaherpesvirus 1, HeLa): 50 µM
- EC50 [3]: 0.02 µM
- EC50 [4]: 183 µM
- Minimum cytotoxic concentration (required to cause a microscopically detectable alteration of normal cell morphology) (Hela cells): >250 μM

Compound: N.N.[Cl][Pt][Cl] [Cisplatin]
- IC50 [5]: 1 µM
- IC50 [6]: 0.9 µM
- IC50 [7]: 1.2 µM

Compound: (S,Rp)-1-[α-Methyl-(3-(hydroxy)propyl)]-2-[(thyminyl)ethyl]-ferrocene [Compound 1]
- IC50 [5]: 0.78 µM
- IC50 [6]: 0.9 µM
- IC50 [7]: 2.68 µM
- EC50 (Vaccinia virus): 21.6 µM
- EC50 [1]: 48 µM
- EC50 ([2]; Hela cells): 9.6 µM
- inhibition of cell growth ([8]; 6.25 μM, 4-day experiment): inhibited cell growth
- EC50 [9]: 2.4 µM
- EC50 [10]: 2.4 µM
- cell survival, TK negative versus TK positive cells [11]: the cells lacking the phosphorylation enzyme (TK negative) survive more than the cells that possess the phosphorylation enzyme (TK positive)

Compound: Nc1nc2c(ncn2COCCO)c(=O)[nH]1 [Acyclovir]
- EC50 (Vaccinia virus; Orthopoxvirus vaccinia, HeLa): > 250 µM
- EC50 [1, 12]: > 250 µM
- EC50 ([2]; Human alphaherpesvirus 1, HeLa): 50 µM

Compound: 1-[2-(Adenin-9-yl)ethyl]-ferrocene [Compound 5]
- inhibition of cell growth [8, 13]: ineffective at inhibiting cell growth

From patent US10138261B2, “Ferrocenyl compounds” (The University of Birmingham, priority 2013, dated 2018)
